Consider twelve compounds from article PMC9007462 (Journal of Medicinal Chemistry, 2022).

The test system of one assay is LNCaP. In words: MTT chemosensitivity assay, LNCaP. To be noted: 96 h exposure, ± SD, at least three independent experiments. It counts as cell-based, human. How it is done: (§1) MTT (3-(4, 5-dimethyl-2-thiazolyl)-2, 5-diphenyl-2H-tetrazolium bromide) assay was used to determine cell viability.[64] Immortalized PCa cells (PC-3, Du-145, and LNCaP) were seeded in 96-well plates and allowed to adhere overnight at 37 °C, 5% CO2, and 100% humidity. […] After 96 h of exposure, 200 μL of MTT (Sigma) solution (0.5 mg/mL) was added to each well and incubated at 37 °C for 4 h. The formazan crystals were dissolved in DMSO (Sigma), and the absorbance was read using a microplate reader (Multiskan EX; Thermo Fisher Scientific) at 540 nm. Data analysis was performed using Microsoft Excel 2013 and GraphPad Prism software.
In general terms: Formazan colour is commonly taken as a measure of viable cells.

The next assay has as its system PC3. In words: MTT chemosensitivity assay, PC3. It counts as cell-based, human. To be noted: ± SD, at least three independent experiments. How it is done:
as §1

For another assay, the system named is DU145. Nature of the assay: MTT chemosensitivity assay, DU145. It counts as cell-based, human. To be noted: ± SD, at least three independent experiments. How it is done: as §1
For assay [1], the target named is T1, Human ALDH3A1 (Homo sapiens, UniProt P30838).
T1 construct: made in house
T1 sequence (P30838 1-453): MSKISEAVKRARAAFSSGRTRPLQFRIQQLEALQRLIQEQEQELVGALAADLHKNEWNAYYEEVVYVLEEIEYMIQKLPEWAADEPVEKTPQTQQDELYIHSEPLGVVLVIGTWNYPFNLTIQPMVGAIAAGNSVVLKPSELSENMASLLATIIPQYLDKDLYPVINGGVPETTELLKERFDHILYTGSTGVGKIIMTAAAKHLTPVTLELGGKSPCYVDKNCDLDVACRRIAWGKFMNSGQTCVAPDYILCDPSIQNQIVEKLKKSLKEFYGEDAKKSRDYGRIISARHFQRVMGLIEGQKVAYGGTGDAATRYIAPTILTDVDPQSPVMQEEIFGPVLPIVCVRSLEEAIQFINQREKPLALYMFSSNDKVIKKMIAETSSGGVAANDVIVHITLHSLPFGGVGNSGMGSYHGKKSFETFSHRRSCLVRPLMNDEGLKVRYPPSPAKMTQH
In words: DEAB analogues as substrates of ALDH3A1 (substrate activity and kinetics). The class given is biochemical. How it is done:
(§2) Human ALDH1A1, ALDH1A3, and ALDH3A1 were cloned and recombinantly expressed from the pET-30 Xa/LIC vector. Protein purification was achieved by affinity chromatography on a nickel-charged chelating Sepharose Fast Flow 5-mL column (His Trap column, Cytiva), which specifically binds the protein due to its N-terminal (His)6 tag, using an ÄKTA FPLC system (Cytiva), as previously described.[55] Enzymes including the His tag were stored at −80 °C in 20 mM Tris/HCl and 0.5 M NaCl, pH 8.0, until use. Reaction buffers were as follows: ALDH1A1 was assayed in 50 mM HEPES, 0.5 mM EDTA, and 0.5 mM DTT, pH 8.0; ALDH1A3 was assayed in 50 mM HEPES, 30 mM MgCl2, and 5 mM DTT, pH 8.0; and ALDH3A1 was assayed in 50 mM Tris–HCl and 5 mM DTT, pH 8.0. Activity under standard conditions was measured fluorimetrically at 25 °C using a Cary Eclipse (Varian) fluorimeter to follow the purification procedure and to check the enzyme concentration before each kinetic experiment. The fluorescence of NADH was characterized at 460 nm with excitation at 340 nm, and 5 μM NAD(P)H was added as an internal standard to obtain the absolute reaction rates.[55] Standard activity was measured at saturating concentrations of substrate using 30 μM hexanal (ALDH1A1), 250 μM hexanal (ALDH1A3), or 250 μM 4-NBA (ALDH3A1). NAD^+ was 500 μM for ALDH1A1 and ALDH1A3, and NADP^+ was 1 mM for ALDH3A1.
According to their structure with a carbonyl group, compounds were tested for their substrate properties against ALDH1A1, ALDH1A3, and ALDH3A1. […] Results are expressed as the percentage of activity at 10 μM versus the activity at 10 μM of their standard substrate (hexanal or 4-NBA). Values are expressed as the mean ± SE.
To calculate the Km value of compound 18 as a substrate for ALDH3A1, several concentrations of compound 18 were used. Experimental values were fitted to the adaptation of the Michaelis–Menten equation for substrate inhibition [drawing 1] and shown as the mean ± SE.

Assay [2] addresses T1, Human ALDH3A1. Nature of the assay: ALDH3A1 inhibition, IC50, Ki and type of inhibition. It counts as biochemical. The note with it: 31 μM 4-NBA as substrate; mean ± SE. How it is done:
as §2
In order to determine the IC50 values, reaction rates were determined at various concentrations of inhibitor at a fixed concentration of substrate. As substrates for ALDH1A1, ALDH1A3, and ALDH3A1, 5 μM hexanal, 6 μM hexanal, and 31 μM 4-NBA, respectively, were used. The IC50 values were calculated by nonlinear fitting of the obtained data to a sigmoidal plot using GraFit 5.0 (Erithacus software), with the following 4-parameter equation [drawing 2] , where y is the specific activity, x is the inhibitor concentration, background is the minimum y value, range is the fitted uninhibited value minus the background, and s is the slope factor. Values are expressed as the mean ± SE.
Activity assays to determine the type of inhibition and Ki value were performed using various substrate and inhibitor concentrations maintaining the same conditions as for the IC50 experiments and using GraFit 5.0 for data processing. The data of enzymatic activities at different inhibitor concentrations were fitted to the Michaelis–Menten equation to determine the values of Km and Vmax. Next, results were fitted to the equations for competitive, given by [drawing 3]; noncompetitive, given by [drawing 4]; uncompetitive, given by [drawing 5]; and mixed, given by [drawing 6] .[56] The type of inhibition was selected based on the lowest error value. Parameters were expressed as the mean ± SE.

For the next assay, the target named is T2, Human ALDH1A3 (Homo sapiens, UniProt P47895).
T2 construct: made in house
T2 sequence (P47895 1-512): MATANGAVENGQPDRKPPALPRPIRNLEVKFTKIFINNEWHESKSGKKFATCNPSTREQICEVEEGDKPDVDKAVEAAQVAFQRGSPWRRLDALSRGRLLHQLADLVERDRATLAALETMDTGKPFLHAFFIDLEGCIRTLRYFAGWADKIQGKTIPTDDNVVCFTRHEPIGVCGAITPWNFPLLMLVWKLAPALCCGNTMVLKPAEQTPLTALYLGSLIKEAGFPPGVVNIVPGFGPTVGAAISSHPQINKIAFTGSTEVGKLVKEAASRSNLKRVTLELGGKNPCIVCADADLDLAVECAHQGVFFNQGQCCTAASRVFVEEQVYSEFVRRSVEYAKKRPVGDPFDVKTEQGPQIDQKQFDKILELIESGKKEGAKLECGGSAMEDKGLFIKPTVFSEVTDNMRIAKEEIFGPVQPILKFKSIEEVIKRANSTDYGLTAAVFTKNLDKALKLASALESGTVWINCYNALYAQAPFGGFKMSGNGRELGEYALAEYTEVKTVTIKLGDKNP
Nature of the assay: ALDH1A3 inhibition, IC50, Ki and type of inhibition. The class given is biochemical. The note with it: for IC50: 6 μM hexanal as substrate; for IC50 / Ki: mean ± SE; for type of inhibition ALDH1A3 / Ki: hexanal as substrate; for Ki: fit to competitive inhibition equation. Here is the method: Human ALDH1A1, ALDH1A3, and ALDH3A1 were cloned and recombinantly expressed from the pET-30 Xa/LIC vector. Protein purification was achieved by affinity chromatography on a nickel-charged chelating Sepharose Fast Flow 5-mL column (His Trap column, Cytiva), which specifically binds the protein due to its N-terminal (His)6 tag, using an ÄKTA FPLC system (Cytiva), as previously described.[55] Enzymes including the His tag were stored at −80 °C in 20 mM Tris/HCl and 0.5 M NaCl, pH 8.0, until use. Reaction buffers were as follows: ALDH1A1 was assayed in 50 mM HEPES, 0.5 mM EDTA, and 0.5 mM DTT, pH 8.0; […] Activity under standard conditions was measured fluorimetrically at 25 °C using a Cary Eclipse (Varian) fluorimeter to follow the purification procedure and to check the enzyme concentration before each kinetic experiment. […] In order to determine the IC50 values, reaction rates were determined at various concentrations of inhibitor at a fixed concentration of substrate. […] Values are expressed as the mean ± SE. […] The data of enzymatic activities at different inhibitor concentrations were fitted to the Michaelis–Menten equation to determine the values of Km and Vmax. Next, results were fitted to the equations for competitive, given by [drawing 3]; noncompetitive, given by [drawing 4]; uncompetitive, given by [drawing 5]; and mixed, given by [drawing 6] .[56] The type of inhibition was selected based on the lowest error value. Parameters were expressed as the mean ± SE.

Where [3] appears, read: Homo sapiens, PC-3, 96 h exposure.
Where [4] appears, read: Homo sapiens, DU-145, 96 h exposure.

A word on the IC50: it is the concentration that inhibits the measured activity by half. In the case of “4-(Dipropylamino)-2-methoxybenzaldehyde [Compound 38]”, the concentration for half-maximal inhibition (IC50) came out at 50 ± 3 µM with LNCaP, 75 ± 10 µM in the assay on PC3 (96 h exposure) and 71 ± 11 µM in the assay on DU145 (96 h exposure).
Taken in the same sequence, the figures for “4-(Dipropylamino)-3-methoxybenzaldehyde [Compound 17]” were 61 ± 18 µM, 106 ± 25 µM and 103 ± 4 µM.
What is called Km is the substrate concentration at which the rate is half of its maximum. Take `O=Cc1ccc([N+](=O)[O-])cc1` [Compound 4-NBA, 4-Nitrobenzaldehyde, reference compound]: at Human ALDH3A1 [1] (mean ± SE), the Km is 31 ± 4.9 µM and the “kcat as ALDH3A1 substrate” value stood at 359 ± 14 min^–1. Besides, the “Km fold higher than compound 18 (ALDH3A1 substrate)” value at Human ALDH3A1 [1] (ratio of Km values) is given as 10 fold. Besides, the “turnover number (kcat) fold higher than compound 18 (ALDH3A1)” value on Human ALDH3A1 [1] (ratio of kcat values) was 26 fold.
With `O=Cc1ccc(-n2ccnc2)cc1` [Compound 6, 4-(1H-Imidazole-1-yl)benzaldehyde], the concentration for half-maximal inhibition (IC50) in the assay with LNCaP (Homo sapiens, LNCaP) is 137 ± 14 µM; in the assay with PC3 (setting [3]) it was 172 ± 30 µM; in the assay on DU145 (setting [4]), 133 ± 11 µM.
With `O=Cc1ccc(N2CCCCC2)c(Cl)c1` [Compound 8, 3-Chloro-4-(piperidin-1-yl)benzaldehyde], the IC50 with LNCaP (Homo sapiens, LNCaP) is 37 ± 1.4 µM; in the assay with PC3 (setting [3]) it was 130 ± 9 µM; in the assay with DU145 (setting [4]), 110 ± 3 µM.
For `O=Cc1ccc(N2CCOCC2)c(Cl)c1` [Compound 9, 3-Chloro-4-morpholinobenzaldehyde], the IC50 turned out to be 64.1 ± 6.7 µM at Human ALDH3A1 [2] and 2370 ± 190 nM at Human ALDH1A3.
As usually defined, the Ki is the equilibrium dissociation constant of an inhibitor or competing ligand from its target. For the compound `Cc1cc(C=O)ccc1N1CCCCC1` [Compound 15, 3-Methyl-4-(piperidin-1-yl)benzaldehyde], the IC50 was determined as 61 ± 14 µM in the assay with LNCaP (Homo sapiens, LNCaP); 123 ± 29 µM in the assay with PC3 (setting [3]); 300 ± 70 nM on Human ALDH1A3; 106 ± 13 µM with DU145 (setting [4]). Besides, the “type of inhibition ALDH1A3” value at Human ALDH1A3 is “competitive”. In addition, the Ki on Human ALDH1A3 is less than 1000 nM.
On to `CC(C)Oc1ccc(C=O)cc1` [Compound 16, 4-Isopropoxybenzaldehyde], for which the IC50 is more than 200 µM with LNCaP (Homo sapiens, LNCaP); more than 200 µM in the assay on PC3 (setting [3]); 260 ± 10 nM at Human ALDH1A3; more than 200 µM with DU145 (setting [4]). In addition, the ALDH3A1 substrate activity result on Human ALDH3A1 [1] (10 μM compound as substrate, relative to activity with 10 μM 4-NBA (Figure S2)) is listed as “good ALDH3A1 substrate”. The “type of inhibition ALDH1A3” value on Human ALDH1A3 was “competitive”. On Human ALDH1A3, the inhibition constant Ki is less than 1000 nM.
In the case of `CN1CCN(c2ccc(C=O)cc2Br)CC1` [Compound 21, 3-Bromo-4-(4-methylpiperazin-1-yl)benzaldehyde], the IC50 in the assay with LNCaP (Homo sapiens, LNCaP) was 179 ± 14 µM; in the assay with PC3 (setting [3]) it was more than 200 µM; in the assay with DU145 (setting [4]), 187 ± 14 µM.
On to `O=Cc1ccc(N2CCOCC2)c(Br)c1` [Compound 22, 3-Bromo-4-morpholinobenzaldehyde], for which the IC50 in the assay with LNCaP (Homo sapiens, LNCaP) amounted to 82 ± 10 µM; in the assay with PC3 (setting [3]), 196 ± 4 µM; with DU145 (setting [4]), 155 ± 32 µM.
In the case of `O=Cc1ccc(N2CCCCC2)c(Br)c1` [Compound 23, 3-Bromo-4-(piperidin-1-yl)benzaldehyde], the IC50 with LNCaP (Homo sapiens, LNCaP) was determined as 46 ± 10 µM; with PC3 (setting [3]), 84 ± 6 µM; in the assay with DU145 (setting [4]), 84 ± 12 µM.
For the compound `O=Cc1ccc(N2CCCC2)c([N+](=O)[O-])c1` [Compound 34, 3-Nitro-4-(pyrrolidin-1-yl)benzaldehyde], the IC50 on Human ALDH1A3 worked out at 270 ± 30 nM.
